Assay results: patent US8809627B2, “Plant isoflavone and isoflavanone O-methyltransferase genes” (The Samuel Roberts Noble Foundation, Inc., priority 2006, dated 2014)

How the values were obtained:
MtIOMT2 = experiment: OMT assays with purified recombinant MtIOMT2 (relative activity; HPLC/MS of products); type: biochemical, Medicago truncatula; conditions: for Relative activity, MtIOMT2: 50 μM S-adenosyl methionine, 100 μM acceptor substrate, most converted substrate (daidzein) = 100%
Text: (§1) Cloning of MtIOMT5 (corresponding to TC 100926, TIGR MtGI v.8) was as described previously (Liu et al., 2005). To obtain a full-length cDNA for MtIOMT2, specific primers designed based upon the M. truncatula genomic sequence were used to amplify the MtIOMT2 coding sequence from M. truncatula root cDNA. The amplified product was cloned into the pGEM®-T easy vector (Promega, Madison Wis.) and sequenced to confirm its identity. MtIOMTs were cloned into the pET28a vector (EMD Biosciences, Inc., San Diego, Calif.) using PCR-based amplification with primers designed to introduce EcoRI and XhoI restriction sites; BamHI and XhoI sites were used for cloning MtIOMT6 due to the presence of an internal EcoRI site in this particular cDNA. Because the EST for MtIOMT8 was missing a start codon, the primer designed to clone MtIOMT8 into pET28a contained an additional 2-nucleotide insertion to generate an ATG start site. All MtIOMTs were expressed as translational fusions to an N-terminal His-tag. Expression of MtIOMTs in E. coli BL21(DE3) and purification by Ni^2+-NTA chromatography were as described (Zubieta et al., 2001). Proteins were dialyzed against 20 mM Tris pH 8.0, 100 mM NaCl, 10% (v/v) glycerol, and 14 mM β-mercaptoethanol. Protein concentration was determined by Bradford assay using BSA as a standard (Bradford, 1976).
(§2) Reactions (200 μl) were performed in 0.1 M potassium phosphate, pH 7.4, 10% (w/v) sucrose, 14 mM β-mercaptoethanol with 10 μM protein, 0.5 mM S-adenosyl-L-methionine, and 80 μM phenolic substrates. All substrates were purchased from Indofine (Hillsborough, N.J.) except 6,7-dihydroxy-4′-methoxyisoflavone, dihydrodaidzein, and vestitol, which were purchased from Apin (Oxfordshire, UK). […] OMT assays were incubated at 30° C. for 2 h and extracted with ethyl acetate. Ethyl acetate extracts were dried under N2 and the resultant material was resuspended in 50-100 μl of methanol. Samples were analyzed on an Agilent 1100 HPLC, equipped with a quaternary pump (model #G1311A), a degasser (model #G1322A), an autosampler (model #G1313A), and a diode array detector (model #G1315A). Samples of 20 μl were applied to an ODS2 reverse-phase column (5 μm particle size, 4.6×250 mm) and eluted in 1% (v/v) phosphoric acid with an increasing gradient of acetonitrile (0-5 min, 25%; 5-35 min, 25-50%; 35-39 min, 50-100%) at a flow rate of 1 ml/min. To resolve the 4′-O-methylated and 7-O-methylated products of genistein, samples were applied to a Phenomenex SYNERGI Polar-RP 80 Å column (4 μm particle size, 4.6×250 mm) and eluted in water with an increasing gradient of acetonitrile (0-5 min, 20%; 5-17 min, 20-38%; 17-33 min, 38%; 33-45 min, 38-56%; 45-46 min, 56-100%) at a flow rate of 1 ml/min. Chiral chromatography was performed as described (Liu et al., 2005).
(§3) For determination of specific activities, reactions (100 μl) were performed in 0.1 M potassium phosphate, pH 7.4, 10% (w/v) sucrose, 14 mM β-mercaptoethanol with 0.2-μg protein, 50 μM S-adenosyl-L-methionine (0.025 μCi ^14C-SAM per reaction), and 100 μM substrate. Reactions were incubated at 30° C. for 15-25 min and stopped by addition of 4 μl of 1N HCl. Products were extracted into 500 μl of ethyl acetate and 400 μl was used for liquid scintillation counting.
(§4) An HP 1100 series II LC system (Hewlett-Packard, Palo Alto, Calif.) with a photodiode array detector was coupled to a Bruker Esquire ion-trap mass spectrometer (ITMS) equipped with an electrospray ionization source. A reverse phase, C18, 5 μm, 4.6×250 mm column (J. T. Baker, Phillipsburg, N.J.) was used for separations. The mobile phase consisted of 0.1% (v/v) acetic acid using linear gradients of 5-90% acetonitrile (v/v) in 70 min. The flow rate was 0.8 ml/min, and the temperature of the column was kept at 28° C. Both positive- and negative-ion mass spectra were acquired. […]

MtIOMT6 = experiment: OMT assays with purified recombinant MtIOMT6 (relative activity; HPLC/MS of products); type: biochemical, Medicago truncatula; conditions: 50 μM S-adenosyl methionine, 100 μM acceptor substrate; most converted substrate = 100%
Text: as §1, §2, §3, §4

MtIOMT1 = experiment: OMT assays with purified recombinant MtIOMT1 (relative activity with 14C-SAM); type: biochemical, Medicago truncatula; conditions: for Relative activity, MtIOMT1: 50 μM S-adenosyl methionine, 100 μM acceptor substrate, most converted substrate = 100%
Text: as §1, with “1976). […]” for “1976).”
as §3

MsI7OMT = biological target: T1, MsI7OMT (Medicago sativa, UniProt O24529); experiment: OMT assays with purified recombinant MsI7OMT (relative activity); type: biochemical; conditions: 50 μM S-adenosyl methionine, 100 μM acceptor substrate; most converted substrate = 100%
T1 sequence (O24529 1-352): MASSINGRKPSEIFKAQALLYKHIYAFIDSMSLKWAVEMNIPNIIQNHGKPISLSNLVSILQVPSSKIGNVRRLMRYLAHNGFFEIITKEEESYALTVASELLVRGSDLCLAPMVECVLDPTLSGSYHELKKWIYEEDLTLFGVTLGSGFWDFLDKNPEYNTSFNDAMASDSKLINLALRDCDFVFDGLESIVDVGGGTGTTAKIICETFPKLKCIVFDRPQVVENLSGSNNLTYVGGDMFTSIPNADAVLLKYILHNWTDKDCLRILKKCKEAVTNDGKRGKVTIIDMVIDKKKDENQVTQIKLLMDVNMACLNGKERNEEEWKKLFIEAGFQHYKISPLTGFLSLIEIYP
Text: as §1, §2, §3

MtIOMT3 = experiment: OMT assays with purified recombinant MtIOMT3 (relative activity; HPLC/MS of products); type: biochemical, Medicago truncatula; conditions: 50 μM S-adenosyl methionine, 100 μM acceptor substrate; most converted substrate = 100%
Text: as §1, §2, §3, §4

SMILES	Relative activity, MtIOMT2 (MtIOMT2)	Relative activity, MtIOMT6 (MtIOMT6)	Relative activity, MtIOMT1 (MtIOMT1)	Relative activity, MsI7OMT (MsI7OMT)	Relative activity, MtIOMT3 (MtIOMT3)	Fold reduction of activity compared with 6,7,4′-trihydroxyisoflavone (MtIOMT1; MtIOMT1, methylation of the 4′-hydroxyl group)	Efficiency of methylation by MtIOMT2 (in words) (MtIOMT2)	Fold by which relative initial activity with glycitein is higher than with this substrate (MtIOMT1; MtIOMT1, saturating concentration of glycitein)
O=c1c(-c2ccc(O)cc2)coc2cc(O)c(O)cc12 [6,7,4′-trihydroxyisoflavone]	35.3%	0%	43.9%	51.8%	100%	–	–	–
COc1ccc(-c2coc3cc(O)c(O)cc3c2=O)cc1 [6,7-dihydroxy,4′-methoxyisoflavone]	0%	0%	≦1%	≦1%	0%	more than 80 fold	–	–
O=c1c(-c2ccc(O)c(O)c2)coc2cc(O)ccc12 [7,3′,4′-trihydroxyisoflavone]	43.1%	0%	40.8%	47.1%	52.9%	–	–	–
O=c1cc(-c2ccc(O)cc2)oc2cc(O)ccc12 [7,4′-dihydroxyflavone]	≦1%	0%	0%	0%	0%	–	–	–
O=c1cc(-c2ccc(O)cc2)oc2cc(O)cc(O)c12 [Apigenin]	0%	0%	0%	0%	0%	–	–	–
O=c1oc2cc(O)ccc2c2oc3cc(O)ccc3c12 [Coumestrol]	≦1%	0%	0%	0%	0%	–	low efficiency	–
O=c1c(-c2ccc(O)cc2)coc2cc(O)ccc12 [Daidzein]	100%	0%	20.6%	21.6%	≦1%	–	–	5 fold
O=C1c2ccc(O)cc2OCC1c1ccc(O)cc1 (stereo not shown) [Dihydrodaidzein]	70.1%	100%	15.6%	12.8%	49.4%	–	–	–
O=c1c(-c2ccc(O)cc2)coc2cc(O)cc(O)c12 [Genistein]	61%	0%	49.2%	15%	73.7%	–	–	–
COc1cc2c(=O)c(-c3ccc(O)cc3)coc2cc1O [Glycitein]	38.9%	0%	100%	100%	51.6%	–	–	–
O=c1c(O)c(-c2cc(O)c(O)c(O)c2)oc2cc(O)cc(O)c12 [Myricetin]	0%	0%	0%	0%	0%	–	–	–
O=C1C[C@@H](c2ccc(O)cc2)Oc2cc(O)cc(O)c21 [Naringenin]	≦1%	0%	0%	0%	0%	–	low efficiency	–
COc1ccc(C2COc3cc(O)ccc3C2)c(O)c1 (stereo not shown) [Vestitol]	≦1%	66.2%	0%	0%	0%	–	low efficiency	–
